What was measured:
[1] = tested on: AMPK; assay: Measurement of AMPK activity by Western blot in C2C12 cells; format: cell-based; parameters: key to AMPK activity (degree of phosphorylation of serine-79 and threonine-172): fold increase in threonine-172 phosphorylation; AMPK activity (degree of phosphorylation of serine-79): unit not given here; settings: 10 μM for 50 minutes; for AMPK activity (degree of phosphorylation of serine-79 and threonine-172): no superscript: Western blot of serine-79 and threonine-172 phosphorylation; for AMPK activity (class: degree of phosphorylation of threonine-172): strong/mild/weak
Outline: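 Differentiated C2C12 cells were exposed to test material at 10 μM for 50 minutes, then lysed. AMPK activity was taken from Western blots of Thr-172 phosphorylation and acetyl CoA carboxylase Ser-79 phosphorylation, with ERK as loading reference. Thr-172 rise was graded strong (≥3-fold), mild (1-3-fold) or weak (<1-fold).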

[2] = tested on: C2C12 muscle cells; assay: Analysis of glucose absorption (2-deoxyglucose) in differentiated C2C12 muscle cells; format: cell-based; settings: test materials 10 μM, times relative to control group
Outline: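 Differentiated C2C12 myotubes (6 days in 1% serum) held 3 h in KRB with 5 mM glucose, then given test material at 10 μM. After 30 min, 0.2 μCi 2-deoxyglucose added for 20 min; uptake measured by radioactive counting of NaOH lysates.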

| Compound | AMPK activity (degree of phosphorylation of serine-79 and threonine-172) [1] | Glucose absorption [2] | AMPK activity (class: degree of phosphorylation of threonine-172) [1] | AMPK activity (degree of phosphorylation of serine-79) ([1]; footnote a: Western blot of serine-79 phosphorylation) |
| --- | --- | --- | --- | --- |
| COc1cccc(CNc2nc(N3CCCCC3)nc3ccccc23)c1OC [Compound 288, (2,3-Dimethoxybenzyl)-(2-piperidino-1-ylquinazolino-4-yl)-amine] | 1.7 | 0.8 | – | – |
| COc1cccc(CNc2nc(C)nc3ccccc23)c1 [Compound 164, (3-Methoxybenzyl)-(2-methylquinazolino-4-yl)-amine] | 1.6 | 3.4 | mild (“mild” means that the degree of phosphorylation of threonine-172 increased by 1 to 3 times) | – |
| COc1cc(CNc2nc(N3CCCCC3)nc3ccccc23)cc(OC)c1 [Compound 304, (3,5-Dimethoxybenzyl)-(2-piperidino-1-ylquinazolino-4-yl)-amine] | 1.4 | 0.8 | – | – |
| c1ccc(-c2nc(NCc3ccccn3)c3ccccc3n2)cc1 [Compound 142, (2-Phenylquinazolino-4-yl)-pyridino-2-ylmethylamine] | 1.4 | 1.4 | mild (“mild” means that the degree of phosphorylation of threonine-172 increased by 1 to 3 times) | – |
| CN1CCN(c2nc(NCc3ccc4c(c3)OCO4)c3ccccc3n2)CC1 [Compound 310, Benzo[1,3]dioxol-5-ylmethyl-[2-(4-methylpiperazino-1-yl)-quinazolino-4-yl]-amine] | 1.6 | 0.9 | – | – |
| COc1cccc(CNc2ncnc3ccccc23)c1OC [Compound 408, (2,3-Dimethoxybenzyl)-quinazolino-4-ylamine] | 3.5 | 1.6 | – | – |
| c1ccc(CCNc2nc(-c3ccccn3)nc3ccccc23)cc1 [Compound 227, Phenethyl-(2-pyridino-2-ylquinazolino-4-yl)-amine] | 4.9 | 1.6 | strong (“strong” means that the degree of phosphorylation of threonine-172 increased by 3 times or more) | – |
| COc1ccccc1CNc1nc(C(C)C)nc2ccccc12 [Compound 321, (2-Isopropylquinazolino-4-yl)-(2-methoxybenzyl)-amine] | 0.9 | 1.2 | – | – |
| COc1ccc(CNc2nc(N3CCOCC3)nc3ccccc23)cc1OC [Compound 301, (3,4-Dimethoxybenzyl)-(2-morpholino-4-ylquinazolino-4-yl)-amine] | 0.9 | 0.8 | – | – |
| CCSc1nc(NCCc2ccccc2)c2ccccc2n1 [Compound 29, (2-Ethylsulfanylquinazolino-4-yl)-phenethylamine] | – | 1.6 | mild (“mild” means that the degree of phosphorylation of threonine-172 increased by 1 to 3 times) | – |
| COc1ccc(OC)c(CNc2nc(-c3ccccc3)nc3ccccc23)c1 [Compound 147, (2,5-Dimethoxybenzyl)-(2-phenylquinazolino-4-yl)-amine] | 1.8 | 1.3 | strong (“strong” means that the degree of phosphorylation of threonine-172 increased by 3 times or more) | – |
| COc1ccc(CNc2nc(C(C)C)nc3ccccc23)cc1 [Compound 177, (2-Isopropylquinazolino-4-yl)-(4-methoxybenzyl)-amine] | 5.5 | 2.8 | strong (“strong” means that the degree of phosphorylation of threonine-172 increased by 3 times or more) | – |
| COc1cccc(CNc2nc(Cc3ccccc3)nc3ccccc23)c1OC [Compound 329, (2-Benzylquinazolino-4-yl)-(2,3-dimethoxybenzyl)-amine] | 4.2 | 1.8 | – | – |
| COc1cc(CNc2nc(Cc3ccccc3)nc3ccccc23)cc(OC)c1 [Compound 330, (2-Benzylquinazolino-4-yl)-(3,5-dimethoxybenzyl)-amine] | 1.7 | 1.2 | – | – |
| CCSc1nc(NCc2cccc(F)c2)c2ccccc2n1 [Compound 9, (2-Ethylsulfanylquinazolino-4-yl)-(3-fluorobenzyl)-amine] | – | 2.0 | – | 5.5^a |
| COc1ccc(CNc2nc(Cc3ccccc3)nc3ccccc23)c(OC)c1 [Compound 272, (2-Benzylquinazolino-4-yl)-(2,4-dimethoxybenzyl)-amine] | 3.4 | 0.4 | – | – |
| Brc1ccc(CNc2nc(-c3ccccc3)nc3ccccc23)cc1 [Compound 148, (4-Bromobenzyl)-(2-phenylquinazolino-4-yl)-amine] | 1.7 | 2.1 | strong (“strong” means that the degree of phosphorylation of threonine-172 increased by 3 times or more) | – |
| COc1ccc(CNc2ncnc3ccccc23)cc1 [Compound 406, (4-Methoxybenzyl)-quinazolino-4-ylamine] | 1.5 | 2.1 | – | – |
| CC(C)c1nc(NCc2cccc(F)c2)c2ccccc2n1 [Compound 183, (3-Fluorobenzyl)-(2-isopropylquinazolino-4-yl)-amine] | 2.6 | 3.3 | strong (“strong” means that the degree of phosphorylation of threonine-172 increased by 3 times or more) | – |
| COc1cc(OC)c(CNc2nc(C3CC3)nc3ccccc23)c(OC)c1 [Compound 392, (2-Cyclopropylquinazolino-4-yl)-(2,4,6-trimethoxybenzyl)-amine] | 2.7 | 1.1 | – | – |
| COc1ccc(CSc2nc(-c3ccccc3)nc3ccccc23)c(OC)c1 [Compound 274, 4-(2,4-Dimethoxybenzylsulfanyl)-2-phenylquinazoline] | 1.9 | 0.8 | – | – |
| COc1ccc(CNc2nc(C(C)c3ccccc3)nc3ccccc23)c(OC)c1 (centres unmarked) [Compound 379, (2,4-Dimethoxybenzyl)-[2-(1-phenylethyl)-quinazolino-4-yl]-amine] | 6.1 | 1.1 | – | – |
| CC(CO)Nc1nc(-c2ccccc2)nc2ccccc12 (centres unmarked) [Compound 112, 2-(2-Phenylquinazolino-4-ylamino)-propane-1-ol] | 1.7 | 1.9 | strong (“strong” means that the degree of phosphorylation of threonine-172 increased by 3 times or more) | – |
| c1ccc2c(NCc3ccc4c(c3)OCO4)nc(N3CCCCC3)nc2c1 [Compound 308, Benzo[1,3]dioxol-5-ylmethyl-(2-piperidino-1-ylquinazolino-4-yl)-amine] | 2.2 | 0.8 | – | – |

From US20080207614A1, “QUINAZOLINE DERIVATIVES FOR THE TREATMENT AND PREVENTION OF DIABETES AND OBESITY” (SK CHEMICALS CO., LTD., priority 2004, published 2008)
